Test: Differential scanning calorimetry (DSC) of drug/compound mixtures (solid solution screening)
Format: physicochemical
Experimental: For the purpose of screening adequate solid dispersions, several exemplary mixtures were prepared, each composed of paclitaxel and a compound of different kind, and these mixtures underwent differential scanning calorimetry (DSC) using a differential scanning calorimeter.
The paclitaxel is a product of SIGMA Corp.
The thus prepared solution was completely freed of ethanol or acetone by vacuum drying. The resulting dry product was placed in an aluminum pan and thereafter underwent DSC in a nitrogen atmosphere at a heating rate of 10° C./min.
For the purpose of observing the properties of the solid solution of HSPC and a drug other than paclitaxel, there were prepared a mixture of HSPC and sirolimus and a mixture of HSPC and simvastatin, as shown in Table 5 below.

endothermic peak due to fusion of paclitaxel (DSC thermogram): gave an endothermic peak
Peak due to fusion of paclitaxel (DSC, nitrogen atmosphere, 10° C./min, 10 mg compound + 10 mg paclitaxel, dried from ethanol or acetone): Yes
Compound: CC(=O)O[C@H]1C(=O)[C@@]2(C)[C@H]([C@H](OC(=O)c3ccccc3)[C@]3(O)C[C@H](OC(=O)[C@H](O)[C@@H](NC(=O)c4ccccc4)c4ccccc4)C(C)=C1C3(C)C)[C@]1(OC(C)=O)CO[C@@H]1C[C@@H]2O [Comparative Example 4, paclitaxel]

From patent US20120082706A1, “MEDICAL DEVICE FOR DRUG DELIVERY” (TERUMO KABUSHIKI KAISHA, priority 2009, published 2012)
